As a reminder, the pIC50 is the IC50 on a negative log10 scale, so that one unit is a factor of ten.

pIC50: −log10 of the molar value.

For the experiment, the target named is Protein Tat (Human immunodeficiency virus type 1 group M subtype B (isolate HXB2)) (UniProt P04608). Put plainly: HIV-1 Tat–TAR interaction blockers – biochemical, fluorescence polarization, FAM-labeled TAR RNA, counter-screen for Vif-APOBEC3G degradation inhibitor project, dose response (AID 1117361). To be noted: Tat-TAR RNA binding. For orientation: Polarisation of emitted light reports the rotation of a fluorescent probe.
Sequence of Protein Tat (Human immunodeficiency virus type 1 group M subtype B (isolate HXB2)) (P04608 whole entry, looked up): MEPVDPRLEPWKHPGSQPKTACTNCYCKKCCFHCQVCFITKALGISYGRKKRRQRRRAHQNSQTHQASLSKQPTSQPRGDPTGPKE
In the case of `CCOc1cccc(=O)c2c(C)n(Cc3ccco3)c(C)c12`, the pIC50 was 5.53.
As to `CCC(=O)NNc1ncnc2ccccc12`, the pIC50 was 4.35.
For the molecule `CN(CCC#N)C(=O)COC(=O)c1c2c(nc3ccccc13)/C(=C\c1ccco1)CC2`, the pIC50 is 4.10.
As for `O=C1NC(=O)N(c2ccc(Cl)cc2)C(=O)/C1=C\c1ccc(Sc2nc3ccccc3[nH]2)o1`, the pIC50 was 5.47.
The figure for `O=C(NCc1ccccc1)c1ccc2nc(-c3ccco3)c(-c3ccco3)nc2c1` is 5.34; for `O=C(O)CC(C(=O)O)N1C(=O)/C(=C/c2ccc(-c3nc4ccccc4s3)o2)SC1=S` (stereo not drawn) it is 4.95; for `NS(=O)(=O)c1ccc(N/N=C/c2ccc(O)c(O)c2O)c([N+](=O)[O-])c1` it is 5.13.
The figure for `O=C(O)CC(C(=O)O)N1C(=O)/C(=C/C=C/c2ccco2)SC1=S` (stereo not drawn) is 5.87; for `Cc1ccc(NC(=O)CN2C(=O)N/C(=C/c3ccco3)C2=O)cc1` it is 4.44; for `CCN1CCN(C2=NC(=O)/C(=C/c3ccc(C)o3)S2)CC1` it is 5.83.
Consider `O=[n+]1c2c(n([O-])c3cc(F)c(F)cc31)CCCC2`, for which the pIC50 was 4.95.
To `Cc1ccc(C=C2C(Cl)=C(Cl)C(Cl)=C2Cl)cc1` belongs 5.33; to `Cc1cccc2cc(-c3ccccc3)c(-c3ccccc3)c[n+]12`, 4.82; to `O=C(O)C1Nc2c(O)cccc2C2C=CCC12` (stereo not drawn), 6.15.
On to `Cc1ccc2c(c1)C1C=CCC1C(C(=O)O)N2` (stereo not drawn), for which the negative-log IC50 (pIC50) is 5.43.
`O=C(O)c1cccc2c1NC(C(=O)O)C1CC(Sc3ccccc3[N+](=O)[O-])C(Cl)C21` (stereo not drawn): the pIC50 is 5.72.
The figure for `Cc1ccc(C)c(-n2c(Cc3cc(=O)[nH]c(=O)[nH]3)nnc2SC(C)C)c1` is 4.11.
As to `Oc1cc2c(cc1O)C1c3ccc(O)c(O)c3OCC1(O)C2` (stereo not drawn), the pIC50 was 4.93.
To `O=C(CCCN1C(=O)/C(=C\c2ccco2)SC1=S)Nc1ccc2ccccc2c1` belongs 4.32; to `COC(=O)CCC(=O)OC1(C)C(=O)C2=COC(c3ccc(OC)cc3)=CC2=C(Br)C1=O` (stereo not drawn), 4.89.
To `COC/C=C/C1=CC2=CC(=O)C(C)(OC(=O)c3cnc4ccccc4n3)C(=O)C2=CN1c1ccccc1` (stereo not drawn) belongs 4.65; to `CCn1c2ccccc2c2cc(NC(=O)c3ccccc3[N+](=O)[O-])ccc21`, 4.36.
Consider `O=S(=O)(O)c1cc(O)c2cc(Nc3ccccc3)ccc2c1`, for which the negative-log IC50 (pIC50) is 4.69.
The figure for `CCc1ccc(NC(=O)N(CCN2CCOCC2)Cc2ccc3c(c2)CCCN3CC)cc1` is 4.13; for `O=C(O)C1Nc2c(Cl)cc(Cl)c(Cl)c2C2C=CCC12` (stereo not drawn) it is 4.34.
To `O=C(NN1C(=O)/C(=C/C=C/c2ccco2)SC1=S)c1ccncc1` belongs 5.57; to `Cc1ccc(SCCN2C(=O)NC(C)(C)C2=O)cc1`, 4.61; to `COc1cc(C(=O)NCC(c2ccco2)N2CCCC2)ccc1OCc1c(C)noc1C` (stereo not drawn), 4.03.
Regarding `CCOc1cc(N2CCOCC2)c(OCC)cc1NC(C)C(=O)N1CCN(CC)CC1` (stereo not drawn), the pIC50 is 4.10.
The figure for `CC(=C/C(=O)O)/C=C/c1ccc(Cl)o1` is 4.04; for `O=[N+]([O-])c1cc(/C=N\Nc2nccs2)ccc1O` it is 5.25; for `Oc1ccccc1/C=N/c1c(-c2ccco2)nc2ccccn12` it is 5.53.
On to `N#C/C(=C\c1ccc([N+](=O)[O-])o1)C(=O)Nc1ccc(F)cc1`, for which the pIC50 is 4.25.
Consider `Nc1cccc2cc(S(=O)(=O)O)ccc12`, for which the pIC50 is 4.17.
As to `O=C1/C(=C\c2ccco2)NC(=S)N1c1ccccc1`, the pIC50 was 4.79.
As to `Cc1ccc(/C=C/C(=O)Nc2ccc([N+](=O)[O-])c(NC(=O)/C=C/c3ccc(C)o3)c2)o1`, the pIC50 is 5.14.
Consider `CCC1C/C(=C/c2ccco2)C(=O)/C(=C/c2ccco2)C1` (stereo not drawn), for which the pIC50 was 4.90.
The figure for `O=c1[nH]c(=S)[nH]c2c1C(c1ccc(Br)cc1)c1c([nH]c(=S)[nH]c1=O)O2` is 5.57.
The figure for `Cc1cc(C(=O)CSc2nnnn2-c2ccccc2)c(C)n1CC1CCCO1` (stereo not drawn) is 4.46; for `CCOc1cccc(CNc2ccc(O)cc2)c1OCc1ccccc1Cl` it is 4.20; for `CC1Cc2ccccc2N1Cc1cc(=O)n2ccsc2n1` (stereo not drawn) it is 5.00.
To `CO[C@H]1C=CO[C@@]2(C)Oc3c(C)c(O)c4c(O)c(c(C=NN5CCN(C)CC5)c(O)c4c3C2=O)NC(=O)C(C)=CC=C[C@H](C)[C@H](O)[C@@H](C)[C@@H](O)[C@@H](C)[C@H](OC(C)=O)[C@@H]1C` belongs 4.95; to `Oc1ccc(-c2cn3c(n2)SCC3)cc1O`, 4.14.
Regarding `Oc1ccc(NCc2cccc(OCc3ccccc3)c2)cc1`, the negative logarithm of the IC50 (pIC50) is 4.18.
To `C=CCOC(=O)C1=C(C)NC(SCC(=O)Nc2ccccc2)=C(C#N)C1c1ccco1` (stereo not drawn) belongs 4.24; to `CCOC(=O)C1=C(c2ccccc2)N=c2s/c(=C\c3ccco3)c(=O)n2C1c1cccs1` (stereo not drawn), 4.48.
For `Nc1nc(-c2ccco2)c(-c2ccco2)s1`, the pIC50 was 5.62.
For the molecule `O=C1CCCC(O)=C1N=Nc1ccc(C(=O)O)cc1`, the pIC50 is 5.19.
The figure for `c1cn2cc(CSC3CCCCC3)nc2s1` is 4.20; for `O=c1c(O)cccc2cc(O)c(O)c(O)c12` it is 5.40; for `Cn1c(=O)c2c(ncn2CC(=O)N/N=C/C=C/c2ccco2)n(C)c1=O` it is 4.77.
As to `O=C1CCCC(O)=C1N=Nc1cccc(C(=O)O)c1`, the negative logarithm of the IC50 (pIC50) is 4.86.
To `CCN(CC)Cc1cc(O)c(CN(CC)CC)cc1O` belongs 5.36; to `COc1ccc(-c2cc(C(=O)N/N=C/c3ccc(OC)c(COCC(F)(F)C(F)F)c3)c3ccccc3n2)c(OC)c1`, 4.00; to `O=C(O)c1cc2cccc(S(=O)(=O)N3CCOCC3)c2cc1O`, 4.10.
The figure for `O=C(O)/C=C/C(=O)Nc1cccnc1` is 5.70.
With `CNc1ccc(Br)cc(C(=O)/C=C/c2ccc(Cl)cc2Cl)c1=O`, the pIC50 was 5.02.
In the case of `Oc1ccc(NCc2cccc(OCc3ccc(F)cc3)c2)cc1`, the negative logarithm of the IC50 (pIC50) is 4.16.
Turning to `CN1CCN(C2=C(Cl)C(=O)c3ccccc3C2=O)CC1`, the pIC50 is 4.40.
In the case of `CC(=O)c1sc2nc(-c3ccco3)ccc2c1N`, the pIC50 is 5.33.
To `O=c1c(-c2cc3ccccc3o2)[n+]([O-])c2ccccc2n1OCc1ccccn1` belongs 4.46.
On to `COc1ccc(-c2cc(-c3ccco3)[nH]c(=O)c2C#N)cc1`, for which the negative-log IC50 (pIC50) was 4.82.
Take `NC1=NC(=O)/C(=C\c2ccco2)S1`: the pIC50 was 5.22.
The figure for `O=C1C2C3C=CC(C3)C2C(=O)N1CNc1ccc(O)cc1` (stereo not drawn) is 4.59; for `O=C1C=C(N2CC2)c2ccccc2C1=O` it is 4.09; for `Cc1cc(C)nc(N/N=C/C2=C(N3CCOCC3)C(=C\c3ccc(Cl)cc3)/CC2)n1` it is 4.14.
The figure for `COc1cccc(C2CC(c3ccccc3OC)n3nc(N)nc3N2)c1` (stereo not drawn) is 6.16; for `O=C(O)c1ccc(-n2cccc2/C=C2/NC(=O)N(c3cccc(Cl)c3)C2=O)cc1` it is 5.11; for `O=C(O)C(Cc1ccccc1)N1C(=O)/C(=C/C=C/c2ccco2)SC1=S` (stereo not drawn) it is 5.90.
The figure for `CC1(OC(=O)CCc2ccccc2)C(=O)C=C2C=C(c3ccsc3)OC=C2C1=O` (stereo not drawn) is 4.18.
On to `NC(=S)N=Nc1c(O)cc(O)c2[nH]c(=O)ccc12`, for which the negative-log IC50 (pIC50) was 4.43.
As to `Cc1ccc(C)n1-c1ccc(-c2nnc3n2CCCCC3)s1`, the pIC50 is 4.27.
Consider `CC(C)OC(=O)c1cccc(C(=O)O)n1`, for which the pIC50 was 5.72.
As to `O=S(=O)(c1ccc2nc(-c3ccco3)c(-c3ccco3)nc2c1)N1CCOCC1`, the pIC50 is 4.35.
For the molecule `O=C(NCCCO)c1ccc2nc(-c3ccco3)c(-c3ccco3)nc2c1`, the pIC50 is 5.45.
Consider `O=S(=O)(O)c1cc(O)c2ccc(Nc3ccccc3)cc2c1`, for which the negative-log IC50 (pIC50) was 4.90.
To `COc1ccc(NC(=O)/C(C#N)=C\c2ccc(Br)o2)cc1` belongs 4.22; to `O=C(COC(=O)c1cc(-c2ccco2)nc2ccccc12)NCc1ccc2c(c1)OCO2`, 4.74.
As to `O=C(Nc1ccc(F)cc1)C(c1ccccc1)N1CCN(S(=O)(=O)c2ccc3ccccc3c2)CC1` (stereo not drawn), the pIC50 is 5.91.
Take `O=C(CCN1CCN(c2ccccc2)CC1)N/N=C/c1ccc(O)c(O)c1O`: the pIC50 was 5.31.
As for `O=[N+]([O-])c1cc(CN2CCCC2)c2cccnc2c1O`, the pIC50 is 5.05.
To `Cc1cc(C(=O)CCl)c(C)n1-c1c(C)n(C)n(-c2ccccc2)c1=O` belongs 4.69; to `Cc1cc(-c2nc3c4c5c(sc4[nH]c(=O)n3n2)CCC5)c(C)o1`, 5.44.
For the molecule `Cc1cccc(C)c1NC(=O)COC(=O)c1cc(-c2cccnc2)nc2ccccc12`, the pIC50 is 4.07.
On to `O=C1S/C(=C\C=C\c2ccco2)C(=O)N1c1ccc(O)cc1`, for which the pIC50 is 5.70.
For the molecule `COc1cc(C2C(C#N)=C(N)N(c3cccnc3)C3=C2C(=O)CCC3)ccc1O` (stereo not drawn), the pIC50 was 4.36.
On to `COc1cc(NC(=O)CS(=O)(=O)c2ccc(C)cc2)cc(OC)c1OC`, for which the pIC50 is 5.85.
The figure for `COc1cc(CNCCc2ccc(F)cc2)ccc1OCc1ccc(Cl)nc1` is 5.01.
As for `Cc1cc(C(=O)Nc2sc3c(c2C#N)CCCCC3)cs1`, the pIC50 is 4.63.
Take `COC/C=C/C1=CC2=CC(=O)C(C)(OC(=O)C3CCCC3)C(=O)C2=CO1` (stereo not drawn): the pIC50 was 4.98.
The figure for `CNc1ccc(Br)cc(C(=O)/C=C/c2cccc(OC)c2OC)c1=O` is 5.10; for `O=C(N/N=C/c1ccc(O)c(O)c1O)/C(=C/c1ccc([N+](=O)[O-])cc1)NC(=O)c1ccccc1` it is 5.14.
To `CC[C@H](C)/C=C(C)/C=C/C1=CC2=CC(=O)[C@]3(C)OC(=O)[C@@H](C(C)=O)[C@@H]3C2=CO1` belongs 4.84; to `COc1cccc(N2C(=O)NC(=O)/C(=C/c3ccc([N+](=O)[O-])s3)C2=O)c1`, 4.46; to `CCOC(=O)c1ccc2c(c1)C1C=CCC1C(C(=O)O)N2` (stereo not drawn), 4.96.
To `CNc1ccccc(C(=O)/C=C/c2ccccc2OC)c1=O` belongs 5.17; to `O=c1oc(/C=C/c2ccco2)nc2sc3c(c12)CCC3`, 4.92.
As to `Cc1c(Cl)cccc1NS(=O)(=O)c1ccc2c(c1)C1C=CCC1C(c1ccc(C(=O)O)cc1)N2` (stereo not drawn), the pIC50 is 5.07.

Source of the values: PubChem BioAssay AID1117361 (Southern Research Institute, 2015).
